{"source": "ChEMBL document CHEMBL5550114", "about": "“Disclosure of cinnamic acid/4,9-diaminoacridine conjugates as multi-stage antiplasmodial hits” (Bioorg Med Chem, 2024)", "key": {"Plasmodium berghei [1]": {"test_system": "Plasmodium berghei", "assay": "Antiplasmodial activity against GFP-Luccon-fused liver stage Plasmodium berghei infected in human Huh-7 cells assessed as parasitic growth inhibition at 1 uM measured after 48 hrs by bioluminescence assay", "type": "functional, organism-based"}, "Plasmodium berghei [2]": {"test_system": "Plasmodium berghei", "assay": "Antiplasmodial activity against GFP-Luccon-fused liver stage Plasmodium berghei infected in human Huh-7 cells assessed as parasitic growth inhibition at 10 uM measured after 48 hrs by bioluminescence assay", "type": "functional, organism-based"}, "Plasmodium falciparum [3]": {"test_system": "Plasmodium falciparum", "assay": "Antiplasmodial activity against gametocyte stage Plasmodium falciparum NF54-gexp02-Tom infected in group B human erythrocytes assessed as parasitic growth inhibition measured after 15 days by Geimsa staining based analysis", "type": "functional, organism-based", "conditions": "Erythrocyte, 360 h"}, "Huh-7": {"test_system": "Huh-7", "assay": "Cytotoxicity against human Huh-7 cells assessed as cell viability at 10 uM measured after 48 hrs by Alamar blue staining based analysis", "type": "toxicity", "conditions": "huh-7, 48 h"}, "Plasmodium falciparum [4]": {"test_system": "Plasmodium falciparum", "assay": "Antiplasmodial activity against CQ-sensitive blood stage Plasmodium falciparum 3D7 infected in group B human erythrocytes assessed as parasitic growth inhibition measured after 48 hrs by flow cytometry", "type": "functional, organism-based", "conditions": "3D7, Erythrocyte"}, "Plasmodium berghei [5]": {"test_system": "Plasmodium berghei", "assay": "Antiplasmodial activity against GFP-Luccon-fused liver stage Plasmodium berghei infected in human Huh-7 cells assessed as parasitic growth inhibition measured after 48 hrs by Alamar blue staining based analysis", "type": "functional, organism-based", "conditions": "Huh-7, 48 h"}, "Plasmodium falciparum [6]": {"test_system": "Plasmodium falciparum", "assay": "Antiplasmodial activity against CQ-sensitive blood stage Plasmodium falciparum 3D7 assessed as parasitic growth inhibition", "type": "functional, organism-based"}}, "note": "The source made the active and inactive calls. The calls are words filed in the database; no cut-off is given here.", "data": [{"smiles": "COc1ccc(/C=C/C(=O)NCCCCNc2cc(OC)cc3cc4ccc(Cl)cc4nc23)cc1", "values": [{"measurement": "inhibition", "setting": "Plasmodium berghei [1]", "result": "inactive"}, {"measurement": "inhibition", "setting": "Plasmodium berghei [2]", "result": "Active"}]}, {"smiles": "COc1cc(NC(C)CCCN)c2ncccc2c1", "note": "(stereo not drawn) [PRIMAQUINE]", "values": [{"measurement": "inhibition", "setting": "Plasmodium berghei [1]", "result": "inactive"}, {"measurement": "inhibition", "setting": "Plasmodium berghei [2]", "result": "Active"}, {"measurement": "IC50", "setting": "Plasmodium falciparum [3]", "result": 17700, "unit": "nM"}]}, {"smiles": "CCN(CC)CCCNc1c2ccc(Cl)cc2nc2c(NCCCCNC(=O)/C=C/c3ccc(OC)cc3)cc(OC)cc12", "values": [{"measurement": "inhibition", "setting": "Plasmodium berghei [1]", "result": "inactive"}, {"measurement": "Activity", "setting": "Huh-7", "result": "Toxic"}, {"measurement": "inhibition", "setting": "Plasmodium berghei [2]", "result": "Active"}, {"measurement": "IC50", "setting": "Plasmodium falciparum [4]", "result": 164, "unit": "nM"}, {"measurement": "IC50", "setting": "Plasmodium falciparum [3]", "result": 474, "unit": "nM"}]}, {"smiles": "CCN(CC)CCCC(C)Nc1c2ccc(Cl)cc2nc2c(NCCCCNC(=O)/C=C/c3ccccc3)cc(OC)cc12", "note": "(stereo not drawn)", "values": [{"measurement": "inhibition", "setting": "Plasmodium berghei [1]", "result": "inactive"}, {"measurement": "Activity", "setting": "Huh-7", "result": "Toxic"}, {"measurement": "inhibition", "setting": "Plasmodium berghei [2]", "result": "Active"}, {"measurement": "IC50", "setting": "Plasmodium falciparum [4]", "result": 143, "unit": "nM"}, {"measurement": "IC50", "setting": "Plasmodium falciparum [3]", "result": 461, "unit": "nM"}]}, {"smiles": "CCN(CC)CCCC(C)Nc1ccnc2cc(Cl)ccc12", "note": "(stereo not drawn)", "values": [{"measurement": "inhibition", "setting": "Plasmodium berghei [1]", "result": "inactive"}, {"measurement": "inhibition", "setting": "Plasmodium berghei [2]", "result": "Active"}]}, {"smiles": "CCN(CC)CCCNc1c2ccc(Cl)cc2nc2c(NCCCCNC(=O)/C=C/c3ccccc3)cc(OC)cc12", "values": [{"measurement": "inhibition", "setting": "Plasmodium berghei [1]", "result": "inactive"}, {"measurement": "Activity", "setting": "Huh-7", "result": "Toxic"}, {"measurement": "inhibition", "setting": "Plasmodium berghei [2]", "result": "Active"}, {"measurement": "IC50", "setting": "Plasmodium falciparum [4]", "result": 80, "unit": "nM"}]}, {"smiles": "CCN(CC)CCCC(C)Nc1c2ccc(Cl)cc2nc2c(NCCCCNC(=O)/C=C/c3ccc(F)cc3)cc(OC)cc12", "note": "(stereo not drawn)", "values": [{"measurement": "inhibition", "setting": "Plasmodium berghei [1]", "result": "inactive"}, {"measurement": "Activity", "setting": "Huh-7", "result": "Toxic"}, {"measurement": "inhibition", "setting": "Plasmodium berghei [2]", "result": "Active"}, {"measurement": "IC50", "setting": "Plasmodium falciparum [4]", "result": 178, "unit": "nM"}, {"measurement": "IC50", "setting": "Plasmodium falciparum [3]", "result": 645, "unit": "nM"}]}, {"smiles": "CCN(CC)CCCC(C)Nc1c2ccc(Cl)cc2nc2c(NCCCCNC(=O)/C=C/c3ccc(OC)cc3)cc(OC)cc12", "note": "(stereo not drawn)", "values": [{"measurement": "inhibition", "setting": "Plasmodium berghei [1]", "result": "inactive"}, {"measurement": "Activity", "setting": "Huh-7", "result": "Toxic"}, {"measurement": "inhibition", "setting": "Plasmodium berghei [2]", "result": "Active"}, {"measurement": "IC50", "setting": "Plasmodium falciparum [4]", "result": 153, "unit": "nM"}]}, {"smiles": "CCN(CC)CCCC(C)Nc1c2ccc(Cl)cc2nc2c(NCCCCN)cc(OC)cc12", "note": "(stereo not drawn)", "values": [{"measurement": "inhibition", "setting": "Plasmodium berghei [1]", "result": "inactive"}, {"measurement": "IC50", "setting": "Plasmodium berghei [5]", "result": 11000, "unit": "nM"}, {"measurement": "Activity", "setting": "Huh-7", "result": "Non-Toxic"}, {"measurement": "inhibition", "setting": "Plasmodium berghei [2]", "result": "Active"}, {"measurement": "IC50", "setting": "Plasmodium falciparum [6]", "result": 680, "unit": "nM"}]}, {"smiles": "CCN(CC)CCCC(C)Nc1c2ccc(Cl)cc2nc2c(NCCCCNC(=O)/C=C/c3cccc(F)c3)cc(OC)cc12", "note": "(stereo not drawn)", "values": [{"measurement": "inhibition", "setting": "Plasmodium berghei [1]", "result": "inactive"}, {"measurement": "Activity", "setting": "Huh-7", "result": "Toxic"}, {"measurement": "inhibition", "setting": "Plasmodium berghei [2]", "result": "Active"}, {"measurement": "IC50", "setting": "Plasmodium falciparum [4]", "result": 164, "unit": "nM"}]}, {"smiles": "COc1cc(NCCCCNC(=O)/C=C/c2ccc(F)cc2)c2nc3cc(Cl)ccc3cc2c1", "values": [{"measurement": "inhibition", "setting": "Plasmodium berghei [1]", "result": "inactive"}, {"measurement": "inhibition", "setting": "Plasmodium berghei [2]", "result": "Active"}]}, {"smiles": "COc1cc(NCCCCNC(=O)/C=C/c2ccccc2)c2nc3cc(Cl)ccc3cc2c1", "values": [{"measurement": "inhibition", "setting": "Plasmodium berghei [1]", "result": "inactive"}, {"measurement": "inhibition", "setting": "Plasmodium berghei [2]", "result": "Active"}]}, {"smiles": "CCN(CC)CCCNc1c2ccc(Cl)cc2nc2c(NCCCCNC(=O)/C=C/c3ccc(F)cc3)cc(OC)cc12", "values": [{"measurement": "inhibition", "setting": "Plasmodium berghei [1]", "result": "inactive"}, {"measurement": "Activity", "setting": "Huh-7", "result": "Toxic"}, {"measurement": "inhibition", "setting": "Plasmodium berghei [2]", "result": "Active"}, {"measurement": "IC50", "setting": "Plasmodium falciparum [4]", "result": 348, "unit": "nM"}]}, {"smiles": "CCN(CC)CCCNc1c2ccc(Cl)cc2nc2c(NCCCCN)cc(OC)cc12", "values": [{"measurement": "inhibition", "setting": "Plasmodium berghei [1]", "result": "inactive"}, {"measurement": "Activity", "setting": "Huh-7", "result": "Non-Toxic"}, {"measurement": "inhibition", "setting": "Plasmodium berghei [2]", "result": "Active"}, {"measurement": "IC50", "setting": "Plasmodium falciparum [6]", "result": 440, "unit": "nM"}]}, {"smiles": "CCN(CC)CCCNc1c2ccc(Cl)cc2nc2c(NCCCCNC(=O)/C=C/c3cccc(F)c3)cc(OC)cc12", "values": [{"measurement": "inhibition", "setting": "Plasmodium berghei [1]", "result": "inactive"}, {"measurement": "Activity", "setting": "Huh-7", "result": "Toxic"}, {"measurement": "inhibition", "setting": "Plasmodium berghei [2]", "result": "Active"}, {"measurement": "IC50", "setting": "Plasmodium falciparum [4]", "result": 161, "unit": "nM"}, {"measurement": "IC50", "setting": "Plasmodium falciparum [3]", "result": "~430", "unit": "nM"}]}, {"smiles": "COc1cc(NCCCCNC(=O)/C=C/c2cccc(F)c2)c2nc3cc(Cl)ccc3cc2c1", "values": [{"measurement": "inhibition", "setting": "Plasmodium berghei [1]", "result": "inactive"}, {"measurement": "inhibition", "setting": "Plasmodium berghei [2]", "result": "Active"}]}]}
